Key:
B-RAF V600E = target: T1, B-RAF V600E (Homo sapiens, UniProt P15056, V600E); assay: Target protein degradation, assay C: T-Rex 293 cells, HA-BRAF_V600E, 384 well format; assay type: cell-based; details: T-Rex 293 HA-BRAF_V600E cells, 24 hours, Examples 83-269; for DC50: Assay C; for Dmax: T-REx-293, Assay C
T1 construct: expressed in transfected cells; host or cells: T-Rex 293 cells (Invitrogen #R71007)
Procedure: C. T-Rex 293 Cells (384 Well Format)
(§1) T-Rex 293 cells were purchased from Invitrogen (#R71007), and stably transfected with a pcDNA4/TO_HA-BRAF_V600E construct, using 400 ug Zeocin for selection. V600E cells are plated in DMEM media (Gibco #11965118) containing 10% FBS (Gibco #16000044), 1% penicillin-streptomycin (ThermoFisher #15140122), 1:250 zeocin (Invitrogen #R-25005), and 1 ng/mL doxycycline (Selleckchem #4163) at a density of 7,500 cells/well in 45 μl on PDL coated, black clear bottom 384 well plates (Corning #354663) and incubated at 37° C.+5% CO2 for 24 hours. The following day, PROTAC compounds in a 1:3 11 point dilution are diluted into DMEM media using an Agilent Bravo. 5 ul of PROTACs suspended in DMEM media are added to the cells, with a final assay concentration ranging from 300 nM to 5 pM in 0.5% DMSO. Plates are incubated at 37° C.+5% CO2 for 24 hours. At the end of treatment, media is aspirated, and cells are fixed in 50 uL 4% PFA (EMS #15710) in PBS++(PBS, 1 mM CaCl, 1 mM MgCl) at RT for 15 minutes. Cells are washed 2× with 60 uL PBS++ and permeabilized in 50 uL 1% Triton X-100 (Sigma #93443) in PBS++ for 5 minutes at RT. Cells are washed in PBS++ prior to blocking with 50 uL Licor blocking buffer (Licor #927-60001) for 1 hour at RT. HA-tagged BRAF was stained using 50 uL HA antibody (CST #3724) at 1:1000 in Licor blocking buffer for two hours at RT. Primary is aspirated before adding 50 ul of secondary antibody solution containing 1:1000 Hoechst (ThermoFisher #62249), 1:1000 HCS CellMask Deep Red Stain (ThermoFisher #H32721), and 1:5000 goat anti-rabbit IgG Alexa-Fluor 488 (ThermoFisher #A32731) in PBS++ for 1 hr at RT. Plates are washed 4× with 60 uL PBS++, then sealed with Adhesive Black Light Absorbing Film (VWR #89087-692) and imaged on the ThermoFisher CX7 PRO high content instrument. BRAF intensity is quantified in HCS Studio software (ThermoFisher), using a custom script, exported, analyzed using KNIME, and curve curation is performed in an ELN (Scilligence). Cell toxicity is measured via comparing number of nuclei in PROTAC treated wells to DMSO controls.
(§2) The concentration of an exemplary compound that leads to half maximal degradation (DC50) as well as the maximum degradation observed (Dmax, conventionally expressed as a percentage of control) is shown below in Table 2.

B-RAF G466V = target: T2, B-RAF G466V (Homo sapiens, UniProt P15056, G466V); assay: Target protein degradation, assay D: T-Rex 293 cells, HA-BRAF_G466V, 384 well format; assay type: cell-based; details: T-Rex 293 HA-BRAF_G466V cells, 24 hours, Examples 83-269; for Dmax: T-REx-293, Assay D
T2 construct: expressed in transfected cells; host or cells: T-Rex 293 cells (Invitrogen #R71007)
Procedure: D. T-Rex 293 Cells (384 Well Format)
as §1, with “pcDNA4/TO_HA-BRAF_G466V” for “pcDNA4/TO_HA-BRAF_V600E”, “G466V” for “V600E”
as §2

T2 sequence (P15056 whole entry G466V): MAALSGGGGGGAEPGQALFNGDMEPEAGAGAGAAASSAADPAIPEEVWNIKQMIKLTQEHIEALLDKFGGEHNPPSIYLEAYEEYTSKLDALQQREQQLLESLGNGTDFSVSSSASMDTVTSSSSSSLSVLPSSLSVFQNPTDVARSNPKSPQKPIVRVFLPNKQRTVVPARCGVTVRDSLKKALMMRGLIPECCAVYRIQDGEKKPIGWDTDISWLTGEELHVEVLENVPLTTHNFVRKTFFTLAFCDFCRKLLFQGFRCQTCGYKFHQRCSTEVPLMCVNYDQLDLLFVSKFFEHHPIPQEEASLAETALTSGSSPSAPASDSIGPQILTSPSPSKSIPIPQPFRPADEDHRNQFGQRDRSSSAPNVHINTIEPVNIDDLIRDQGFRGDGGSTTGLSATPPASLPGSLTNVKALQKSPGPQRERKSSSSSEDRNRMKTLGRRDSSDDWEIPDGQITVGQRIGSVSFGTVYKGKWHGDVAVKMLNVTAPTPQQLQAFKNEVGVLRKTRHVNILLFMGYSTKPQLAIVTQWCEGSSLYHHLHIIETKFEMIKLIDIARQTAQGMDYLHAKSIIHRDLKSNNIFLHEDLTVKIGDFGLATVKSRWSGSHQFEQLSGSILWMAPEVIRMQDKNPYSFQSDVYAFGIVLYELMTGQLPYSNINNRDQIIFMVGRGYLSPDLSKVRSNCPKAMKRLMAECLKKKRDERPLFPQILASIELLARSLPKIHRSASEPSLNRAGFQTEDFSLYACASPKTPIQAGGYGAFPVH
T1 sequence (P15056 whole entry V600E): as the sequence (P15056 whole entry G466V) above, with V466G, V600E counted along it

| DC50 (B-RAF V600E) [nM] | Dmax (B-RAF V600E) [%] | DC50 (B-RAF G466V; Assay D) [nM] | Dmax (B-RAF G466V) [%] | Structure (SMILES) | B-RAF G466V DMax (%) (B-RAF G466V; Assay D) |
| --- | --- | --- | --- | --- | --- |
| 50 to 500 | 35 to 70 | 1 to 10 | 35 to 70 | C[C@H]1CC(CN2CCC(c3ccc4c(c3)CN(C3CCC(=O)NC3=O)C4=O)CC2)CCN1c1ccc(-n2cnc3ccc(Oc4c(F)ccc(NS(=O)(=O)N5CC[C@@H](F)C5)c4C#N)cc3c2=O)cc1 (stereo partly drawn) [Example 232, (3R)-N-{2-cyano-3-[(3-{4-[(2S)-4-({4-[2-(2,6-dioxopiperidin-3-yl)-1-oxo-2,3-dihydro-1H-isoindol-5-yl]piperidin-1-yl}methyl)-2-methylpiperidin-1-yl]phenyl}-4-oxo-3,4-dihydroquinazolin-6-yl)oxy]-4-fluorophenyl}-3-fluoropyrrolidine-1-sulfonamide] |  |
| 50 to 500 | 35 to 70 | 10 to 30 | ≥ 70 | CC(C)(C1CCN(c2ccc(-n3cnc4ccc(Oc5c(F)ccc(NS(=O)(=O)N6CC[C@@H](F)C6)c5C#N)cc4c3=O)cc2)CC1)N1CCN(c2ccc3c(c2)CN([C@H]2CCC(=O)NC2=O)C3=O)CC1 [Example 269, (3R)-N-(2-cyano-3-{[3-(4-{4-[2-(4-{2-[(3S)-2,6-dioxopiperidin-3-yl]-1-oxo-2,3-dihydro-1H-isoindol-5-yl}piperazin-1-yl)propan-2-yl]piperidin-1-yl}phenyl)-4-oxo-3,4-dihydroquinazolin-6-yl]oxy}-4-fluorophenyl)-3-fluoropyrrolidine-1-sulfonamide] |  |
| 50 to 500 | ≤ 35 | 10 to 30 | 35 to 70 | N#Cc1c(NS(=O)(=O)N2CC[C@@H](F)C2)ccc(F)c1Oc1ccc2ncn(-c3ccc(N4CCN(c5cc(N6CCN(c7ccc8c(c7)C(=O)N(C7CCC(=O)NC7=O)C8=O)CC6)ncn5)CC4)nc3)c(=O)c2c1 (stereo partly drawn) [Example 168, (3R)-N-{2-cyano-3-[(3-(6-[4-(6-{4-[2-(2,6-dioxopiperidin-3-yl)-1,3-dioxo-2,3-dihydro-1H-isoindol-5-yl]piperazin-1-yl}pyrimidin-4-yl)piperazin-1-yl]pyridin-3-yl}-4-oxo-3,4-dihydroquinazolin-6-yl)oxy]-4-fluorophenyl}-3-fluoropyrrolidine-1-sulfonamide] |  |
| 5 to 50 | 35 to 70 | 1 to 10 | 35 to 70 | N#Cc1c(NS(=O)(=O)N2CC[C@@H](F)C2)ccc(F)c1Oc1ccc2ncn(-c3ccc(N4CCN(CC5CN(c6ccc7c(c6)CN([C@@H]6CCC(=O)NC6=O)C7=O)C5)CC4)cc3)c(=O)c2c1 [Example 107, (3R)-N-(2-cyano-3-{[3-(4-{4-[(1-{2-[(3R)-2,6-dioxopiperidin-3-yl]-1-oxo-2,3-dihydro-1H-isoindol-5-yl}azetidin-3-yl)methyl]piperazin-1-yl}phenyl)-4-oxo-3,4-dihydroquinazolin-6-yl]oxy}-4-fluorophenyl)-3-fluoropyrrolidine-1-sulfonamide] |  |
| 50 to 500 | 35 to 70 | 1 to 10 | 35 to 70 | N#Cc1c(NS(=O)(=O)N2CC[C@@H](F)C2)ccc(F)c1Oc1ccc2ncn(-c3ccc(N4CCC(CN5CCC6(CC5)CCN(c5ccc7c(c5)CN([C@H]5CCC(=O)NC5=O)C7=O)CC6)CC4)cc3)c(=O)c2c1 [Example 228, (3R)-N-(2-cyano-3-{[3-(4-{4-[(9-{2-[(3S)-2,6-dioxopiperidin-3-yl]-1-oxo-2,3-dihydro-1H-isoindol-5-yl}-3,9-diazaspiro[5.5]undecan-3-yl)methyl]piperidin-1-yl}phenyl)-4-oxo-3,4-dihydroquinazolin-6-yl]oxy}-4-fluorophenyl)-3-fluoropyrrolidine-1-sulfonamide] |  |
| 50 to 500 | 35 to 70 | 1 to 10 | ≥ 70 | N#Cc1c(NS(=O)(=O)N2CC[C@@H](F)C2)ccc(F)c1Oc1ccc2ncn(-c3ccc(N4CCC(CN5CC6(CCC(c7ccc8c(c7)CN(C7CCC(=O)NC7=O)C8=O)CC6)C5)C4)cc3)c(=O)c2c1 (single isomer, unassigned) [Example 260, (3R)-N-(2-cyano-3-{[3-(4-{3-[(7-{2-[(3R*)-2,6-dioxopiperidin-3-yl]-1-oxo-2,3-dihydro-1H-isoindol-5-yl}-2-azaspiro[3.5]nonan-2-yl)methyl]pyrrolidin-1-yl}phenyl)-4-oxo-3,4-dihydroquinazolin-6-yl]oxy}-4-fluorophenyl)-3-fluoropyrrolidine-1-sulfonamide] |  |
| 50 to 500 | ≤ 35 | > 30 |  | N#Cc1c(NS(=O)(=O)N2CC[C@@H](F)C2)ccc(F)c1Oc1ccc2ncn(-c3ccc(N4CCC5(CCN(c6ccc7c(c6)C(=O)N(C6CCC(=O)NC6=O)C7=O)CC5)CC4)nc3)c(=O)c2c1 (stereo partly drawn) [Example 148, (3R)-N-(2-cyano-3-{[3-(6-{9-[2-(2,6-dioxopiperidin-3-yl)-1,3-dioxo-2,3-dihydro-1H-isoindol-5-yl]-3,9-diazaspiro[5.5]undecan-3-yl}pyridin-3-yl)-4-oxo-3,4-dihydroquinazolin-6-yl]oxy}-4-fluorophenyl)-3-fluoropyrrolidine-1-sulfonamide] |  |
| 5 to 50 | 35 to 70 | 1 to 10 | ≤ 35 | N#Cc1c(NS(=O)(=O)N2CC[C@@H](F)C2)ccc(F)c1Oc1ccc2ncn(-c3ccc(N4CCN(CC5CCN(c6ccc(C7CCC(=O)NC7=O)cn6)CC5)CC4)cc3)c(=O)c2c1 (stereo partly drawn) [Example 91, (3R)-N-{2-cyano-3-[(3-(4-[4-({1-[5-(2,6-dioxopiperidin-3-yl)pyridin-2-yl]piperidin-4-yl}methyl)piperazin-1-yl]phenyl}-4-oxo-3,4-dihydroquinazolin-6-yl)oxy]-4-fluorophenyl}-3-fluoropyrrolidine-1-sulfonamide] |  |

| Structure (SMILES) | DC50 (B-RAF V600E) [nM] | Dmax (B-RAF V600E) [%] | DC50 (B-RAF G466V; Assay D) [nM] | Dmax (B-RAF G466V) [%] | B-RAF G466V DMax (%) (B-RAF G466V; Assay D) |
| --- | --- | --- | --- | --- | --- |
| CN(CC1CCN(c2ccc(-n3cnc4ccc(Oc5c(F)ccc(NS(=O)(=O)N6CC[C@@H](F)C6)c5C#N)cc4c3=O)cn2)CC1)[C@H]1C[C@H](Oc2ccc3c(c2)C(=O)N([C@@H]2CCC(=O)NC2=O)C3=O)C1 [Example 166, (3R)-N-{2-cyano-4-fluoro-3-[(3-{6-[4-({methyl[(1r,3r)-3-{[2-(2,6-dioxopiperidin-3-yl)-1,3-dioxo-2,3-dihydro-1H-isoindol-5-yl]oxy}cyclobutyl]amino}methyl)piperidin-1-yl]pyridin-3-yl}-4-oxo-3,4-dihydroquinazolin-6-yl)oxy]phenyl}-3-fluoropyrrolidine-1-sulfonamide] | > 500 |  | 1 to 10 |  | C (C ≤ 35) |
